From patent publication US20120302566A1, “INDANYLOXYDIHYDROBENZOFURANYLACETIC ACIDS” (BOEHRINGER INGELHEIM INTERNATIONAL GMBH, priority 2010, published 2012)

Target: human GPR40 receptor (Homo sapiens, UniProt O14842)
Test: IP1 accumulation measurements using the IPOne assay system
Format: cell-based
Conditions: IP1 accumulation (IPOne HTRF), 1 hour stimulation; 1321N1 cells stably expressing human GPR40; read-out: EC50 values on GPR40 determined as described in (B)
Procedure: (B) IP1 accumulation measurements using the IPOne assay system—1321N1 cells stably expressing human GPR40 receptor (Euroscreen, Belgium) were seeded 24 h before the assay in black clear-bottom collagen-coated 384-well plates in culture medium containing 10% FCS, 1% Na-Pyruvate and 400 μg/mL G418. IP1 is assayed according to the Manufacturer's description (Cisbio Bioassays, France). In brief, the assay is started by substitution of the culture medium by stimulation buffer (Hepes 10 mM, CaCl2 1 mM, MgCl2 0.5 mM, KCl 4.2 mM, NaCl 146 mM and glucose 5.5 mM, pH 7.4) without LiCl. Cells are stimulated for 1 hour at 37°, 10% CO2 by addition of the compounds that were diluted in stimulation buffer containing LiCl yielding a final LiCl concentration of 50 mM. Assays are stopped by adding HTRF-conjugates (IP1-d2 and Anti-IP1 cryptate Tb) and lysis buffer, provided by the manufacturer. After an incubation time of 1 hour at room temperature plates are measured using an EnVision™, Perkin Elmer.

Sequence of human GPR40 receptor (O14842 whole entry): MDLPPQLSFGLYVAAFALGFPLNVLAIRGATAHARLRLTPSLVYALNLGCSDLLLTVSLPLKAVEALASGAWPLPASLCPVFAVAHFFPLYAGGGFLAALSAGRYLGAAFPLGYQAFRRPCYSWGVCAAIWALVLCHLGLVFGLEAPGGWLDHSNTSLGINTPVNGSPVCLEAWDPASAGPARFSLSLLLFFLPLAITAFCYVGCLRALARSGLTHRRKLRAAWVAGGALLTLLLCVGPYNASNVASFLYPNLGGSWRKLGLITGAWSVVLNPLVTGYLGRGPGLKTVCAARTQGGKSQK

| SMILES | EC50 |
| --- | --- |
| COc1ccc(C)c(-c2cccc3c2CC[C@H]3Oc2ccc3c(c2)OC[C@H]3CC(=O)O)c1C [Example 100, {(S)-6-[(R)-4-(3-Methoxy-2,6-dimethyl-phenyl)-indan-1-yloxy]-2,3-dihydro-benzofuran-3-yl}-acetic acid] | 26 nM |
| CO[C@H](c1cccc2c1CC[C@H]2Oc1ccc2c(c1)OC[C@H]2CC(=O)O)C(F)(F)F (single isomer, unassigned) [Example 38, {(S)-6-[(R)-4-((R)*-2,2,2-Trifluoro-1-methoxy-ethyl)-indan-1-yloxy]-2,3-dihydro-benzofuran-3-yl}-acetic acid] | 131 nM |
| CC1OC(c2cccc3c2CC[C@H]3Oc2ccc3c(c2)OC[C@H]3CC(=O)O)C1(C)C (single isomer, unassigned) [Example 42] | 131 nM |
| Cc1cccc(C)c1-c1cccc2c1CC[C@H]2Oc1ccc2c(c1)OC[C@H]2CC(=O)O [Example 33, {(S)-6-[(R)-4-(2,6-Dimethyl-phenyl)-indan-1-yloxy]-2,3-dihydro-benzofuran-3-yl}-acetic acid] | 4 nM |
| CC(O)(c1cccc2c1CC[C@H]2Oc1ccc2c(c1)OC[C@H]2CC(=O)O)C(F)(F)F (stereo partly drawn) [Example 89, {(S)-6-[(R)-4-(2,2,2-Trifluoro-1-hydroxy-1-methyl-ethyl)-indan-1-yloxy]-2,3-dihydro-benzofuran-3-yl}-acetic acid] | 428 nM |
| Cc1ccnc(C)c1-c1cccc2c1CC[C@H]2Oc1ccc2c(c1)OC[C@H]2CC(=O)O [Example 93, {(S)-6-[(R)-4-(2,4-Dimethyl-pyridin-3-yl)-indan-1-yloxy]-2,3-dihydro-benzofuran-3-yl}-acetic acid] | 61 nM |
| Cc1cccc(Cl)c1-c1cccc2c1CC[C@H]2Oc1ccc2c(c1)OC[C@H]2CC(=O)O [Example 90, {(S)-6-[(R)-4-(2-Chloro-6-methyl-phenyl)-indan-1-yloxy]-2,3-dihydro-benzofuran-3-yl}-acetic acid] | 36 nM |
| O=C(O)C[C@@H]1COc2cc(O[C@@H]3CCc4cc(Cl)ccc43)ccc21 [Example 21, {(S)-6-[(R)-5-Chloro-indan-1-yloxy]-2,3-dihydro-benzofuran-3-yl}-acetic acid] | 54 nM |
| Cc1cccc2cccc(-c3cccc4c3CC[C@H]4Oc3ccc4c(c3)OC[C@H]4CC(=O)O)c12 [Example 92, {(S)-6-[(R)-4-(8-Methyl-naphthalen-1-yl)-indan-1-yloxy]-2,3-dihydro-benzofuran-3-yl}-acetic acid] | 7 nM |
| O=C(O)C[C@@H]1COc2cc(O[C@@H]3CCc4ccc(C(F)(F)F)cc43)ccc21 [Example 19, {(S)-6-[(R)-6-Trifluoromethyl-indan-1-yloxy]-2,3-dihydro-benzofuran-3-yl}-acetic acid] | 5190 nM |
| O=C(O)C[C@@H]1COc2cc(O[C@@H]3CCc4c(OC(F)(F)F)cccc43)ccc21 [Example 25, {(S)-6-[(R)-4-Trifluoromethoxy-indan-1-yloxy]-2,3-dihydro-benzofuran-3-yl}-acetic acid] | 18 nM |
| Cc1cc2c(cc1O[C@@H]1CCc3c1cccc3C(F)(F)F)OCC2CC(=O)O (mixture of isomers) [Example 107, {5-Methyl-6-[(R)-4-trifluoromethyl-indan-1-yloxy]-2,3-dihydro-benzofuran-3-yl}-acetic acid] | 6050 nM |
| COc1ccc(C)c(-c2cccc3c2CC[C@H]3Oc2ccc3c(c2)OC[C@H]3CC(=O)O)c1 [Example 71, {(S)-6-[(R)-4-(5-Methoxy-2-methyl-phenyl)-indan-1-yloxy]-2,3-dihydro-benzofuran-3-yl}-acetic acid] | 71 nM |
| COc1cc(C)c(-c2cccc3c2CC[C@H]3Oc2ccc3c(c2)OC[C@H]3CC(=O)O)c(C)c1 [Example 59, {(S)-6-[(R)-4-(4-Methoxy-2,6-dimethyl-phenyl)-indan-1-yloxy]-2,3-dihydro-benzofuran-3-yl}-acetic acid] | 325 nM |
| Cc1ccc2ccccc2c1-c1cccc2c1CC[C@H]2Oc1ccc2c(c1)OC[C@H]2CC(=O)O [Example 80, {(S)-6-[(R)-4-(2-Methyl-naphthalen-1-yl)-indan-1-yloxy]-2,3-dihydro-benzofuran-3-yl}-acetic acid] | 20 nM |
